Experimental data: ChEMBL document CHEMBL1201862, “PubChem BioAssay data set” (2004)
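Where inhibition never reached the appropriate level, the endpoint shown equals the highest concentration tested. Otherwise, values were interpolated linearly from a five-concentration, 48-hour dose response in 96-well plates. The concentration for 50% growth inhibition is given as GI50.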 The source made the active and inactive calls. Cut-off read from the data, not from the text of the source: active = GI50 up to about 1.1 µM and inactive = higher.

Tests used:
Experiment in all cases: NCI tumour cell line growth inhibition, 48 h
[1] = test system: DLD-1
[2] = test system: HCT-15
[3] = test system: HL-60
[4] = test system: KM-20L2
[5] = test system: LOX IMVI
[6] = test system: LXFL 529
[7] = test system: M14
[8] = test system: M19-MEL
[9] = test system: MOLT-4
[10] = test system: NCI-H226
[11] = test system: NCI-H522
[12] = test system: OVCAR-4
[13] = test system: SF-295
[14] = test system: SN12C
[15] = test system: SNB-19
[16] = test system: U-251
[17] = test system: UO-31
[18] = test system: DMS-114
[19] = test system: NCI/ADR-RES
[20] = test system: PC-3

| Structure (SMILES) | GI50 [1] | GI50 [2] [µM] | GI50 [3] | GI50 [4] | GI50 [5] | GI50 [6] | GI50 [7] | GI50 [8] | GI50 [9] | GI50 [10] | GI50 [11] | GI50 [12] | GI50 [13] | GI50 [14] | GI50 [15] | GI50 [16] | GI50 [17] | GI50 [18] | GI50 [19] | GI50 [20] |
| --- | --- | --- | --- | --- | --- | --- | --- | --- | --- | --- | --- | --- | --- | --- | --- | --- | --- | --- | --- | --- |
| NC(=O)c1cn(Cc2ccccc2)c(=O)n1Cc1ccccc1 | > 100 µM (inactive) | > 100 | > 100 µM (inactive) | > 100 µM (inactive) | > 100 µM (inactive) | > 100 µM (inactive) | > 100 µM (inactive) | > 100 µM (inactive) | > 100 µM (inactive) | > 100 µM (inactive) | > 100 µM (inactive) | > 100 µM (inactive) | > 100 µM (inactive) | > 100 µM (inactive) | > 100 µM (inactive) | > 100 µM (inactive) | > 100 µM (inactive) |  |  |  |
| O=C1Cc2ccccc2N1/N=C\c1ccc([N+](=O)[O-])cc1 | > 100 µM (inactive) | > 100 | > 100 µM (inactive) | > 100 µM (inactive) | > 100 µM (inactive) |  | > 100 µM (inactive) | > 100 µM (inactive) | > 100 µM (inactive) | > 100 µM (inactive) |  | > 100 µM (inactive) | > 100 µM (inactive) |  | > 100 µM (inactive) | > 100 µM (inactive) | > 100 µM (inactive) | > 100 µM (inactive) |  |  |
| COC(=O)NC12CC3CC(CC(F)(C3)C1)C2 | > 100 µM (inactive) |  | > 100 µM (inactive) | > 100 µM (inactive) | > 100 µM (inactive) |  | > 100 µM (inactive) | > 100 µM (inactive) | > 100 µM (inactive) |  | > 100 µM (inactive) |  |  |  | > 100 µM (inactive) | > 100 µM (inactive) | > 100 µM (inactive) |  |  |  |
| O=C(CCC(=O)Nc1cccc(Cl)c1)CC(=O)c1ccc(F)cc1 | > 100 µM (inactive) | > 100 | > 100 µM (inactive) | > 100 µM (inactive) | > 100 µM (inactive) |  | > 100 µM (inactive) |  | > 100 µM (inactive) | > 100 µM (inactive) | > 100 µM (inactive) | > 100 µM (inactive) | 23.2 µM (inactive) | > 100 µM (inactive) | > 100 µM (inactive) |  | > 100 µM (inactive) |  |  |  |
| CC(=O)O[C@]12CCCCCC1C1(O)C(O)CCCCC12 (some centres undefined) |  | > 100 | > 100 µM (inactive) | > 100 µM (inactive) | > 100 µM (inactive) | > 100 µM (inactive) | > 100 µM (inactive) | > 100 µM (inactive) | > 100 µM (inactive) | > 100 µM (inactive) | > 100 µM (inactive) | > 100 µM (inactive) | > 100 µM (inactive) | > 100 µM (inactive) | > 100 µM (inactive) | > 100 µM (inactive) | > 100 µM (inactive) | > 100 µM (inactive) |  |  |
| COc1cc2ccc(C(=O)O)cc2cc1OC |  | > 100 |  | > 100 µM (inactive) | > 100 µM (inactive) | > 100 µM (inactive) | > 100 µM (inactive) | > 100 µM (inactive) | > 100 µM (inactive) | > 100 µM (inactive) | > 100 µM (inactive) | > 100 µM (inactive) | > 100 µM (inactive) | > 100 µM (inactive) | > 100 µM (inactive) | > 100 µM (inactive) | > 100 µM (inactive) |  |  |  |
| O=C(OCc1ccccc1)c1ccccc1-c1c2ccc(=O)cc-2oc2cc(OCc3ccccc3)ccc12 | 5.01 µM (inactive) | 9.84 | 5.48 µM (inactive) | 14.6 µM (inactive) | 6.43 µM (inactive) | 4.88 µM (inactive) | 15.8 µM (inactive) | 20.3 µM (inactive) | 1.95 µM (inactive) | 11.6 µM (inactive) |  | 13.5 µM (inactive) | 17.2 µM (inactive) | 16.9 µM (inactive) | 35.1 µM (inactive) | 5.32 µM (inactive) | 6.12 µM (inactive) |  |  |  |
| C[C@@H]1C[C@H](O)[C@]2(O)O[C@@H]3C[C@@]4(C=O)[C@@H](CC[C@@H]5[C@@H]4CC[C@]4(C)[C@@H](C6=CC(=O)OC6)CC[C@]54O)C[C@H]3O[C@@H]2O1 [CALOTROPIN] |  | 0.0327 | 0.0397 µM (active) |  | 0.0231 µM (active) |  | 0.065 µM (active) |  | 0.0163 µM (active) | 0.0815 µM (active) | 0.0162 µM (active) | 0.0179 µM (active) | 0.0372 µM (active) | 0.0202 µM (active) | 0.083 µM (active) | 0.034 µM (active) | 0.0583 µM (active) |  | 0.0206 µM (active) | 0.0234 µM (active) |
| Cc1cccc(N(CC(=O)O)S(=O)(=O)c2ccccc2)c1 | > 100 µM (inactive) | > 100 | > 100 µM (inactive) | > 100 µM (inactive) | > 100 µM (inactive) | > 100 µM (inactive) | > 100 µM (inactive) | > 100 µM (inactive) | > 100 µM (inactive) | > 100 µM (inactive) | > 100 µM (inactive) | > 100 µM (inactive) | > 100 µM (inactive) | > 100 µM (inactive) | > 100 µM (inactive) | > 100 µM (inactive) | > 100 µM (inactive) |  |  |  |
| N#CC(C(=O)CCC(=O)Nc1cccc(C(F)(F)F)c1)c1ccc(Cl)cc1 (centres undefined) | > 100 µM (inactive) | > 100 | > 100 µM (inactive) | > 100 µM (inactive) | > 100 µM (inactive) | > 100 µM (inactive) | > 100 µM (inactive) | > 100 µM (inactive) | > 100 µM (inactive) | > 100 µM (inactive) | > 100 µM (inactive) | > 100 µM (inactive) | > 100 µM (inactive) | > 100 µM (inactive) | > 100 µM (inactive) | > 100 µM (inactive) | > 100 µM (inactive) |  |  |  |
| NC(=O)c1ccc[n+](C2=C([N-]S(=O)(=O)c3ccccc3)C(=O)c3ccccc3C2=O)c1 |  | 23.3 | 18.5 µM (inactive) |  | 12.9 µM (inactive) |  | 15.7 µM (inactive) |  | 25.2 µM (inactive) | 14.7 µM (inactive) | 10.9 µM (inactive) | 1.17 µM (inactive) | 17.5 µM (inactive) | 16.9 µM (inactive) | 15.8 µM (inactive) | 15.1 µM (inactive) | 14.5 µM (inactive) |  | 15.8 µM (inactive) | 15.9 µM (inactive) |
| Cc1ccc2c(O)cc(-c3ccc(Cl)cc3)nc2n1 |  | 3.31 | 2.69 µM (inactive) |  | 4.93 µM (inactive) |  | 7.48 µM (inactive) |  | 1.2 µM (inactive) | 14.9 µM (inactive) | 5.89 µM (inactive) | 15.2 µM (inactive) | 4.59 µM (inactive) | 4.38 µM (inactive) | 6.97 µM (inactive) | 5.47 µM (inactive) | 14.3 µM (inactive) |  | 8.89 µM (inactive) | 2.96 µM (inactive) |
| CCOc1ccc2nc3cc(/N=N/c4ccc(N)nc4N)ccc3c(N)c2c1 |  | 37.8 | 1.95 µM (inactive) |  | 0.419 µM (active) |  | 20 µM (inactive) |  | 1.46 µM (inactive) | 21.7 µM (inactive) | 2.99 µM (inactive) | 6.92 µM (inactive) | 22.6 µM (inactive) | 2.17 µM (inactive) | 1.67 µM (inactive) | 0.578 µM (active) | 28.4 µM (inactive) |  | > 88.1 µM (inactive) | 3.57 µM (inactive) |
